ChEMBL document CHEMBL4052775, “Design, synthesis and in vitro anti-mycobacterial evaluation of gatifloxacin-1H-1,2,3-triazole-isatin hybrids” (Bioorg Med Chem Lett, 2017)
Values after ≈ are worked out from the molar mass of the structure shown.

How the values were obtained:
[1] = Selectivity index, ratio of CC50 for African green monkey Vero cells to MIC for Mycobacterium tuberculosis H37Rv ATCC 27294; format: toxicity; details: read-out: Selectivity Index
[2] = test system: Mycobacterium tuberculosis; assay: Antimycobacterial activity against Mycobacterium tuberculosis H37Rv ATCC 27294 by two fold dilution method; format: functional
[3] = Cytotoxicity against African green monkey Vero cells assessed as reduction in cell viability after 72 hrs by MTT assay; format: cell-based; details: chlorocebus sabaeus

SMILES | selectivity ratio [1] | MIC [2] [µg/mL] | CC50 at 72 h [3] [µg/mL]
COc1c(N2CCNC(C)C2)c(F)cc2c(=O)c(C(=O)O)cn(C3CC3)c12 (configuration not stated) [GATIFLOXACIN] | 160 | 0.78 (≈ 2.08 µM) | 125 (≈ 333 µM)
NNC(=O)c1ccncc1 [ISONIAZID] | – | 0.05 (≈ 0.365 µM) | 125 (≈ 911 µM)
CO[C@H]1/C=C/O[C@@]2(C)Oc3c(C)c(O)c4c(O)c(c(/C=N/N5CCN(C)CC5)c(O)c4c3C2=O)NC(=O)/C(C)=C\C=C\[C@H](C)[C@H](O)[C@@H](C)[C@@H](O)[C@@H](C)[C@H](OC(C)=O)[C@@H]1C [RIFAMPIN] | – | 0.39 (≈ 0.474 µM) | 500 (≈ 608 µM)
